For `CCOP(=S)(OCC)Oc1cc(Cl)c(Br)cc1Cl`, the logP was 6.15. For `ClC1=C(Cl)[C@]2(Cl)[C@H]3[C@H]([C@@H]4C=C[C@H]3C4)[C@@]1(Cl)C2(Cl)Cl` (racemic), the logP was 6.5. Work on `COP(=S)(OC)Oc1cc(Cl)c(I)cc1Cl` yielded a logP of 5.51. With `Clc1cc(Cl)c(Cl)c(-c2c(Cl)c(Cl)cc(Cl)c2Cl)c1Cl` the logP was 7.73. For `CCc1ccc2c(c1)C(=O)c1ccccc1C2=O`, the logP was 4.37. Work on `Clc1ccc(-c2ccc(Cl)c(Cl)c2)cc1Cl` yielded a logP of 6.63. `Clc1c(Cl)c(Cl)c(-c2ccccc2)c(Cl)c1Cl` gave a logP of 6.75. In the case of `Clc1cccc(Cl)c1-c1c(Cl)cccc1Cl`, the logP is reported as 5.94. `CCCCC(CC)COC(=O)c1ccccc1C(=O)OCC(CC)CCCC` (stereo not drawn) gave a logP of 7.6. Work on `ClC1=C(Cl)[C@]2(Cl)[C@@H]3[C@@H]4C[C@@H]([C@H]5O[C@@H]45)[C@@H]3[C@@]1(Cl)C2(Cl)Cl` (single isomer, unassigned) yielded a logP of 5.4. In the case of `CCCCc1ccccc1`, the logP is reported as 4.38. In the case of `Clc1cc(-c2cc(Cl)c(Cl)c(Cl)c2)cc(Cl)c1Cl`, the logP is reported as 7.41. Work on `Clc1c(Cl)c(Cl)c(Cl)c(Cl)c1Cl` yielded a logP of 5.73.

— the OPERA property sets (Mansouri et al. 2018)
